# pEC50: −log10 of the molar value.
# Biological target: T1, CXCR7 (Homo sapiens, UniProt P25106)
# T1 construct: host or cells: CHO-K1 (PathHunter CHO-K1 CXCR7 b-arrestin cell line, stably transfected)
# Assay: PathHunter CHO-K1 CXCR7 b-arrestin recruitment assay (CXCR7 agonistic activity)
# Assay type: cell-based
# Conditions: PathHunter CHO-K1 CXCR7 b-arrestin cell line
# Summary of the method: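 Stable CHO-K1 line with C-terminally ProLink-tagged CXCR7 and β-arrestin 2–EA fusion; β-arrestin recruitment restores β-gal activity, read by chemiluminescence after 1 h RT detection. Cells seeded 24 h, starved in OPTIMEM 3–4 h, exposed to compounds 90 min at 37 °C in HBSS/HEPES/BSA. Geometric-mean EC50 from repeated measurements.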
# T1 sequence (P25106 whole entry): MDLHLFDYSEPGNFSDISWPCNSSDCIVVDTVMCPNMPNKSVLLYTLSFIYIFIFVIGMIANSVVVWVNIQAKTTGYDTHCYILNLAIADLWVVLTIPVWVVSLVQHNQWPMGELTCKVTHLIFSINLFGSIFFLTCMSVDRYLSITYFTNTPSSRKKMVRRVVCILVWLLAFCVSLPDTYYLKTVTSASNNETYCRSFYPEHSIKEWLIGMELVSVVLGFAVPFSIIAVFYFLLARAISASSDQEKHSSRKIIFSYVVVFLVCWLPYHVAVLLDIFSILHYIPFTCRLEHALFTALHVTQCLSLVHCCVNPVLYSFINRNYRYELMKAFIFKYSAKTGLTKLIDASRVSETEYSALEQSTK
# T1 sequence (P32121 whole entry partner): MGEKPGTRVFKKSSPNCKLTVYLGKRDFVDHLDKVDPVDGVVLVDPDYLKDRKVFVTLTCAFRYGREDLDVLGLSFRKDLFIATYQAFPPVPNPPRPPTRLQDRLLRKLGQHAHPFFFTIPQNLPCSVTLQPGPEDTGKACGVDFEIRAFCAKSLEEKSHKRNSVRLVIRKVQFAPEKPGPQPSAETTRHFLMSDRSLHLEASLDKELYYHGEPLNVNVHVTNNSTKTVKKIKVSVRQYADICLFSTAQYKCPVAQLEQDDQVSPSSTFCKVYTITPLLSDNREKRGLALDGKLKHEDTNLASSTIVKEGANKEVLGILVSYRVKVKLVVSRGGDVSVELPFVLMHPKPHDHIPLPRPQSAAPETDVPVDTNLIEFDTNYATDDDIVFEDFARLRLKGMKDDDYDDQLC
row,SMILES,pEC50
1,"CN1CCCC1CCN(CCCc1ccccc1)C(=O)CNc1cccc2c1CCN(CC1CC1)C2 (racemic) [Example 52, rac-2-(2-Cyclopropylmethyl-1,2,3,4-tetrahydro-isoquinolin-5-ylamino)-N-[2-(1-methyl-pyrrolidin-2-yl)-ethyl]-N-(3-phenyl-propyl)-acetamide]",7.77
2,"CN(CCN(Cc1ccccc1Br)C(=O)CNc1cccc2c1CCN(CC1CC1)C2)C(=O)OC(C)(C)C [Example 235, (2-{(2-Bromo-benzyl)-[2-(2-cyclopropylmethyl-1,2,3,4-tetrahydro-isoquinolin-5-ylamino)-acetyl]-amino}-ethyl)-methyl-carbamic acid tert-butyl ester]",6.97
3,"CCC(=O)N1CCc2c(cccc2NCC(=O)N(CCN(C)C)Cc2ccccc2Cl)C1 [Example 20, N-(2-Chloro-benzyl)-N-(2-dimethylamino-ethyl)-2-(2-propionyl-1,2,3,4-tetrahydro-isoquinolin-5-ylamino)-acetamide]",7.96
4,"O=C(CNc1cccc2c1CN(CC1CC1)CC2)N(CC(=O)N1CC(F)(F)C1)Cc1ccccc1C(F)(F)F [compound 482, 2-(2-Cyclopropylmethyl-1,2,3,4-tetrahydro-isoquinolin-8-ylamino)-N-[2-(3,3-difluoro-azetidin-1-yl)-2-oxo-ethyl]-N-(2-trifluoromethyl-benzyl)-acetamide]",7.49
5,"CC(C)CN1CCc2cccc(NCC(=O)N(CCN(C)C)Cc3ccccc3)c2C1 [compound 189, N-Benzyl-N-(2-dimethylamino-ethyl)-2-(2-isobutyl-1,2,3,4-tetrahydro-isoquinolin-8-ylamino)-acetamide]",7.43
6,"O=C(CNc1cccc2c1CCN(CC1CC1)C2)N(CCN1CCCC1)Cc1ccc(F)cc1F [Example 51, 2-(2-Cyclopropylmethyl-1,2,3,4-tetrahydro-isoquinolin-5-ylamino)-N-(2,4-difluoro-benzyl)-N-(2-pyrrolidin-1-yl-ethyl)-acetamide]",8.52
7,"CCN1CCc2c(/C=C/C(=O)N(Cc3ccccc3C(F)(F)F)C3CCN(C)CC3)cccc2C1 [compound 151, (E)-3-(2-Ethyl-1,2,3,4-tetrahydro-isoquinolin-5-yl)-N-(1-methyl-piperidin-4-yl)-N-(2-trifluoromethyl-benzyl)-acrylamide]",7.47
8,"CCN1CCc2cccc(NCC(=O)N(CCN(C)C)Cc3c(F)cccc3F)c2C1 [compound 524, N-(2,6-Difluoro-benzyl)-N-(2-dimethylamino-ethyl)-2-(2-ethyl-1,2,3,4-tetrahydro-isoquinolin-8-ylamino)-acetamide]",7.57
9,"CN1CCC(N(Cc2ccccc2C(F)(F)F)C(=O)CNc2cccc3c2CCN(C(=O)OC(C)(C)C)C3)CC1 [Example 10, 5-({[(1-Methyl-piperidin-4-yl)-(2-trifluoromethyl-benzyl)-carbamoyl]-methyl}-amino)-3,4-dihydro-1H-isoquinoline-2-carboxylic acid tert-butyl ester]",6.47
10,"CN(C)CCN(Cc1ncccc1C(F)(F)F)C(=O)CNc1cccc2c1CCN(CC1CCC1)C2 [Example 368, 2-(2-Cyclobutylmethyl-1,2,3,4-tetrahydro-isoquinolin-5-ylamino)-N-(2-dimethylamino-ethyl)-N-(3-trifluoromethyl-pyridin-2-ylmethyl)-acetamide]",8.52
11,"CN(C)CCN(Cc1ccccc1)C(=O)CNc1cccc2c1CN(CC1CCCCC1)CC2 [compound 194, N-Benzyl-2-(2-cyclohexylmethyl-1,2,3,4-tetrahydro-isoquinolin-8-ylamino)-N-(2-dimethylamino-ethyl)-acetamide]",7.89
12,"O=C(CNc1cccc2c1CCN(CC1CC1)C2)N(CCN1CCCC1)Cc1ccccc1 [Example 41, N-Benzyl-2-(2-cyclopropylmethyl-1,2,3,4-tetrahydro-isoquinolin-5-ylamino)-N-(2-pyrrolidin-1-yl-ethyl)-acetamide]",8.30
13,"COCCN1CCc2c(/C=C/C(=O)N(CCC(C)(C)C)Cc3ncccc3C)cccc2C1 [Example 320, (E)-N-(3,3-Dimethyl-butyl)-3-[2-(2-methoxy-ethyl)-1,2,3,4-tetrahydro-isoquinolin-5-yl]-N-(3-methyl-pyridin-2-ylmethyl)-acrylamide]",6.81
14,CN(C)CCN(Cc1ccccc1)C(=O)CNc1cccc2c1CCN(CCC(C)(C)C)C2 [compound 120],6.81
15,CCN1CCc2cccc(OC3(C(=O)N(CCN(C)C)Cc4ccccc4C(F)(F)F)CCC3)c2C1 [compound 549],6.59
16,"CNCCN(Cc1ncccc1C(F)(F)F)C(=O)CNc1cccc2c1CCN(C(=O)C1CCC1)C2 [compound 414, 2-(2-Cyclobutanecarbonyl-1,2,3,4-tetrahydro-isoquinolin-5-ylamino)-N-(2-methylamino-ethyl)-N-(3-trifluoromethyl-pyridin-2-ylmethyl)-acetamide]",7.43
17,"CN(C)CCN(Cc1ncccc1C(F)(F)F)C(=O)Cc1cccc2c1CCN(CC1CC1)C2 [Example 5, 2-(2-Cyclopropylmethyl-1,2,3,4-tetrahydro-isoquinolin-5-yl)-N-(2-dimethylamino-ethyl)-N-(3-trifluoromethyl-pyridin-2-ylmethyl)-acetamide]",6.73
18,"O=C(CNc1cccc2c1CCN(CC1CC1)C2)N(CCN1CCC(F)(F)CC1)Cc1ccccc1C(F)(F)F [Example 277, 2-(2-Cyclopropylmethyl-1,2,3,4-tetrahydro-isoquinolin-5-ylamino)-N-[2-(4,4-difluoro-piperidin-1-yl)-ethyl]-N-(2-trifluoromethyl-benzyl)-acetamide]",7.55
19,"CC(C)CN1Cc2cccc(NCC(=O)N(CCN3CCCC3)Cc3ccccc3C(F)(F)F)c2CC1=O [Example 314, 2-(2-Isobutyl-3-oxo-1,2,3,4-tetrahydro-isoquinolin-5-ylamino)-N-(2-pyrrolidin-1-yl-ethyl)-N-(2-trifluoromethyl-benzyl)-acetamide]",7.64
20,"COCCN1CCc2c(cccc2NCC(=O)N(Cc2ncccc2Cl)CC(C)(C)O)C1 [Example 307, N-(3-Chloro-pyridin-2-ylmethyl)-N-(2-hydroxy-2-methyl-propyl)-2-[2-(2-methoxy-ethyl)-1,2,3,4-tetrahydro-isoquinolin-5-ylamino]-acetamide]",6.37
21,CCN1CCc2cccc(NCC(=O)N(CCN(C)C(=O)OC(C)(C)C)Cc3ccccc3)c2C1 [compound 493],6.60
22,CNCCN(Cc1ncccc1C(F)(F)F)C(=O)CNc1cccc2c1CCN(C(=O)OC(C)C)C2 [compound 424],7.22
23,"COCCN1CCc2c(cccc2NCC(=O)N(Cc2ccccc2C(F)(F)F)CC(C)(C)O)C1 [Example 301, N-(2-Hydroxy-2-methyl-propyl)-2-[2-(2-methoxy-ethyl)-1,2,3,4-tetrahydro-isoquinolin-5-ylamino]-N-(2-trifluoromethyl-benzyl)-acetamide]",6.68
24,"CC(C)OC(=O)N1CCc2cccc(NCC(=O)N(CCN(C)C)Cc3ccccc3)c2C1 [compound 192, 8-({[Benzyl-(2-dimethylamino-ethyl)-carbamoyl]-methyl}-amino)-3,4-dihydro-1H-isoquinoline-2-carboxylic acid isopropyl ester]",7.42
25,CCN1CCc2cccc(NCC(=O)N(CCN(C)C)Cc3ccc(F)cc3C(F)(F)F)c2C1 [compound 523],7.24
